Test results from ChEMBL document CHEMBL3525934 (Drug Metab Dispos, 2013).

How the values were obtained:
Format in all cases: ADME
Liver microsome = assay: Drug level in pooled human liver microsomes treated with clozapine at 100 uM after 30 mins by HPLC analysis; details: 0.5 h
[1] = substrate: CN1CCN(C2=Nc3cc(Cl)ccc3Nc3ccccc32)CC1; assay: Drug metabolism in supersomes expressing human recombinant CYP2D6 assessed as enzyme-mediated clozapine N-oxide metabolite formation after 15 mins by Michaelis-Menten equation analysis
[2] = substrate: CN1CCN(C2=Nc3cc(Cl)ccc3Nc3ccccc32)CC1; assay: Drug metabolism in supersomes expressing human recombinant CYP2D6 assessed as enzyme-mediated N-demethyl clozapine metabolite formation after 15 mins by Michaelis-Menten equation analysis
[3] = substrate: CN1CCN(C2=Nc3cc(Cl)ccc3Nc3ccccc32)CC1; assay: Drug metabolism in supersomes expressing human recombinant CYP2D6 assessed as enzyme-mediated total GSH conjugate formation after 15 mins by Michaelis-Menten equation analysis

Molecule | Drug metabolism (Liver microsome) | other results
NCCNC1=Nc2cc(Cl)ccc2Nc2ccccc21 | metabolite_detected | 
CN1CCN(C2=Nc3cc(Cl)c(O)cc3Nc3ccccc32)CC1 | metabolite_detected | 
CN1CCN(C2=Nc3c(ccc(Cl)c3O)Nc3ccccc32)CC1 | metabolite_detected | 
C[N+]1([O-])CCN(C2=Nc3cc(Cl)ccc3Nc3ccccc32)CC1 | metabolite_detected | 
CNCCNC1=Nc2cc(Cl)ccc2Nc2ccccc21 | metabolite_detected | 
Clc1ccc2c(c1)N=C(N1CCNCC1)c1ccccc1N2 [N-DESMETHYLCLOZAPINE] | metabolite_detected | 
Cytochrome P450 2D6 (Homo sapiens) (protein) MGLEALVPLAVIVAIFLLLVDLMHRRQRWAARYPPGPLPLPGLGNLLHVDFQNTPYCFDQLRRRFGDVFSLQLAWTPVVVLNGLAAVREALVTHGEDTADRPPVPITQILGFGPRSQGVFLARYGPAWREQRRFSVSTLRNLGLGKKSLEQWVTEEAACLCAAFANHSGRPFRPNGLLDKAVSNVIASLTCGRRFEYDDPRFLRLLDLAQEGLKEESGFLREVLNAVPVLLHIPALAGKVLRFQKAFLTQLDELLTEHRMTWDPAQPPRDLTEAFLAEMEKAKGNPESSFNDENLRIVVADLFSAGMVTTSTTLAWGLLLMILHPDVQRRVQQEIDDVIGQVRRPEMGDQAHMPYTTAVIHEVQRFGDIVPLGVTHMTSRDIEVQGFRIPKGTTLITNLSSVLKDEAVWEKPFRFHPEHFLDAQGHFVKPEAFLPFSAGRRACLGEPLARMELFLFFTSLLQHFSFSVPTGQPRPSHHGVFAFLVSPSPYELCAVPR |  | Km [1]: 84.1 µM; Km [2]: 25.3 µM; Km [3]: 21.9 µM
